In PubChem BioAssay AID1919013 (Molecular Pharmacology Branch, DTP, NCI, 2023):
pIC50: −log10 of the molar value.

Tested on: LG0703-F498-PDC complex spheroid growth
Experiment: Anticancer human tumor LG0703-F498-PDC patient-derived lung adenocarcinoma cell line growth inhibition [AhR]
Conditions: for pIC50: curve of first compound; for viability, T/C: stronger effect = lower value
Method in brief: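 Complex tumor spheroids co-cultured with HUVEC and human MSC stroma; AhR antagonists tested in combination with standard-of-care and investigational agents. Top concentration at or near clinical Cmax (else 10 microM), half-log dilutions; growth expressed as percent test/control.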

[1] = second compound 0.1 µM, first compound 0.0316 µM
[2] = second compound 0.1 µM, first compound 0.1 µM
[3] = second compound 0.1 µM, first compound 0.316 µM
[4] = second compound 0.1 µM, first compound 1 µM
[5] = second compound 0.1 µM, first compound 3.16 µM
[6] = second compound 0.1 µM, first compound 10 µM
[7] = second compound 0.316 µM, first compound 0.0316 µM
[8] = second compound 0.316 µM, first compound 0.1 µM
[9] = second compound 0.316 µM, first compound 0.316 µM
[10] = second compound 0.316 µM, first compound 1 µM
[11] = second compound 0.316 µM, first compound 3.16 µM
[12] = second compound 0.316 µM, first compound 10 µM
[13] = second compound 1 µM, first compound 0.0316 µM
[14] = second compound 1 µM, first compound 0.1 µM
[15] = second compound 1 µM, first compound 0.316 µM
[16] = second compound 1 µM, first compound 1 µM
[17] = second compound 1 µM, first compound 3.16 µM
[18] = second compound 1 µM, first compound 10 µM
[19] = second compound 3.16 µM, first compound 0.0316 µM
[20] = second compound 3.16 µM, first compound 0.1 µM
[21] = second compound 3.16 µM, first compound 0.316 µM
[22] = second compound 3.16 µM, first compound 1 µM
[23] = second compound 3.16 µM, first compound 3.16 µM
[24] = second compound 3.16 µM, first compound 10 µM
[25] = second compound 10 µM, first compound 0.0316 µM
[26] = second compound 10 µM, first compound 0.1 µM
[27] = second compound 10 µM, first compound 0.316 µM
[28] = second compound 10 µM, first compound 1 µM
[29] = second compound 10 µM, first compound 3.16 µM
[30] = second compound 10 µM, first compound 10 µM
[31] = second compound 0.1 µM, first compound 0.00949 µM
[32] = second compound 0.1 µM, first compound 0.03 µM
[33] = second compound 0.1 µM, first compound 0.0949 µM
[34] = second compound 0.1 µM, first compound 0.3 µM
[35] = second compound 0.316 µM, first compound 0.00949 µM
[36] = second compound 0.316 µM, first compound 0.03 µM
[37] = second compound 0.316 µM, first compound 0.0949 µM
[38] = second compound 0.316 µM, first compound 0.3 µM
[39] = second compound 1 µM, first compound 0.00949 µM
[40] = second compound 1 µM, first compound 0.03 µM
[41] = second compound 1 µM, first compound 0.0949 µM
[42] = second compound 1 µM, first compound 0.3 µM
[43] = second compound 3.16 µM, first compound 0.00949 µM
[44] = second compound 3.16 µM, first compound 0.03 µM
[45] = second compound 3.16 µM, first compound 0.0949 µM
[46] = second compound 3.16 µM, first compound 0.3 µM
[47] = second compound 10 µM, first compound 0.00949 µM
[48] = second compound 10 µM, first compound 0.03 µM
[49] = second compound 10 µM, first compound 0.0949 µM
[50] = second compound 10 µM, first compound 0.3 µM
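Also: luminescence taken as a proxy for viable cell amount.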
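For viability, T/C in this document: percent of DMSO vehicle control where 100% means growth equal to vehicle.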

SMILES: CC1(C)CCC(CN2CCN(c3ccc(C(=O)NS(=O)(=O)c4ccc(NCC5CCOCC5)c([N+](=O)[O-])c4)c(Oc4cnc5[nH]ccc5c4)c3)CC2)=C(c2ccc(Cl)cc2)C1 + Cc1ccccc1N=Nc1ccc(NC(=O)c2ccnn2C)c(C)c1
- pIC50 (second compound 0.1 µM): 5.20
- pIC50 (second compound 0.316 µM): 5.19
- pIC50 (second compound 1 µM): 5.25
- pIC50 (second compound 3.16 µM): 5.24
- pIC50 (second compound 10 µM): 5.14
- viability, T/C [1]: 102%
- viability, T/C [2]: 94.5%
- viability, T/C [3]: 94.1%
- viability, T/C [4]: 94.3%
- viability, T/C [5]: 95.2%
- viability, T/C [6]: 19.1%
- viability, T/C [7]: 98.7%
- viability, T/C [8]: 104%
- viability, T/C [9]: 100%
- viability, T/C [10]: 89.5%
- viability, T/C [11]: 92.9%
- viability, T/C [12]: 24.5%
- viability, T/C [13]: 96.8%
- viability, T/C [14]: 87%
- viability, T/C [15]: 107%
- viability, T/C [16]: 91.1%
- viability, T/C [17]: 78.5%
- viability, T/C [18]: 22.2%
- viability, T/C [19]: 79%
- viability, T/C [20]: 90.9%
- viability, T/C [21]: 82.9%
- viability, T/C [22]: 107%
- viability, T/C [23]: 75.4%
- viability, T/C [24]: 26.8%
- viability, T/C [25]: 95%
- viability, T/C [26]: 86%
- viability, T/C [27]: 96.2%
- viability, T/C [28]: 76.2%
- viability, T/C [29]: 83.3%
- viability, T/C [30]: 37.7%

SMILES: CC1COCCN1c1cc(C2(S(C)(=N)=O)CC2)nc(-c2ccnc3[nH]ccc23)n1 (stereo not given) + Cc1ccccc1N=Nc1ccc(NC(=O)c2ccnn2C)c(C)c1
- pIC50 (second compound 0.1 µM): < 5.00
- pIC50 (second compound 0.316 µM): < 5.00
- pIC50 (second compound 1 µM): < 5.00
- pIC50 (second compound 3.16 µM): < 5.00
- pIC50 (second compound 10 µM): < 5.00
- viability, T/C [1]: 108%
- viability, T/C [2]: 101%
- viability, T/C [3]: 97%
- viability, T/C [4]: 99.5%
- viability, T/C [5]: 94.8%
- viability, T/C [6]: 67.6%
- viability, T/C [7]: 100%
- viability, T/C [8]: 92.7%
- viability, T/C [9]: 105%
- viability, T/C [10]: 98%
- viability, T/C [11]: 95%
- viability, T/C [12]: 64.1%
- viability, T/C [13]: 99.2%
- viability, T/C [14]: 92.9%
- viability, T/C [15]: 93.7%
- viability, T/C [16]: 96.6%
- viability, T/C [17]: 82.1%
- viability, T/C [18]: 67.4%
- viability, T/C [19]: 81.9%
- viability, T/C [20]: 88.5%
- viability, T/C [21]: 107%
- viability, T/C [22]: 87.5%
- viability, T/C [23]: 68.6%
- viability, T/C [24]: 56.1%
- viability, T/C [25]: 91.4%
- viability, T/C [26]: 77.2%
- viability, T/C [27]: 95.4%
- viability, T/C [28]: 91.9%
- viability, T/C [29]: 79.7%
- viability, T/C [30]: 65.2%

SMILES: CCN(c1cc(-c2ccc(CN3CCOCC3)cc2)cc(C(=O)NCc2c(C)cc(C)[nH]c2=O)c1C)C1CCOCC1 + Cc1ccccc1N=Nc1ccc(NC(=O)c2ccnn2C)c(C)c1
- pIC50 (second compound 0.1 µM): < 5.52
- pIC50 (second compound 0.316 µM): < 5.52
- pIC50 (second compound 1 µM): < 5.52
- pIC50 (second compound 3.16 µM): < 5.52
- pIC50 (second compound 10 µM): < 5.52
- viability, T/C [31]: 97.8%
- viability, T/C [32]: 104%
- viability, T/C [33]: 104%
- viability, T/C [34]: 107%
- viability, T/C (second compound 0.1 µM, first compound 0.949 µM): 112%
- viability, T/C (second compound 0.1 µM, first compound 3 µM): 118%
- viability, T/C [35]: 94.3%
- viability, T/C [36]: 106%
- viability, T/C [37]: 95%
- viability, T/C [38]: 100%
- viability, T/C (second compound 0.316 µM, first compound 0.949 µM): 102%
- viability, T/C (second compound 0.316 µM, first compound 3 µM): 106%
- viability, T/C [39]: 97.7%
- viability, T/C [40]: 93.2%
- viability, T/C [41]: 115%
- viability, T/C [42]: 92%
- viability, T/C (second compound 1 µM, first compound 0.949 µM): 97.3%
- viability, T/C (second compound 1 µM, first compound 3 µM): 99.8%
- viability, T/C [43]: 95.9%
- viability, T/C [44]: 99.9%
- viability, T/C [45]: 102%
- viability, T/C [46]: 94.2%
- viability, T/C (second compound 3.16 µM, first compound 0.949 µM): 87.1%
- viability, T/C (second compound 3.16 µM, first compound 3 µM): 101%
- viability, T/C [47]: 81.9%
- viability, T/C [48]: 86.1%
- viability, T/C [49]: 96.4%
- viability, T/C [50]: 86.1%
- viability, T/C (second compound 10 µM, first compound 0.949 µM): 82.2%
- viability, T/C (second compound 10 µM, first compound 3 µM): 98.5%

SMILES: Nc1ncn(C2CC(O)C(CO)S2)c(=O)n1 (stereo not given) + Cc1ccccc1N=Nc1ccc(NC(=O)c2ccnn2C)c(C)c1
- pIC50 (second compound 0.1 µM): < 6.52
- pIC50 (second compound 0.316 µM): < 6.52
- pIC50 (second compound 1 µM): < 6.52
- pIC50 (second compound 3.16 µM): < 6.52
- pIC50 (second compound 10 µM): < 6.52
- viability, T/C (second compound 0.1 µM, first compound 0.000949 µM): 103%
- viability, T/C (second compound 0.1 µM, first compound 0.003 µM): 105%
- viability, T/C [31]: 94.5%
- viability, T/C [32]: 91.5%
- viability, T/C [33]: 94.8%
- viability, T/C [34]: 97.2%
- viability, T/C (second compound 0.316 µM, first compound 0.000949 µM): 102%
- viability, T/C (second compound 0.316 µM, first compound 0.003 µM): 93.9%
- viability, T/C [35]: 92.7%
- viability, T/C [36]: 93.9%
- viability, T/C [37]: 101%
- viability, T/C [38]: 111%
- viability, T/C (second compound 1 µM, first compound 0.000949 µM): 99.3%
- viability, T/C (second compound 1 µM, first compound 0.003 µM): 89.3%
- viability, T/C [39]: 80.5%
- viability, T/C [40]: 98.7%
- viability, T/C [41]: 88%
- viability, T/C [42]: 82.5%
- viability, T/C (second compound 3.16 µM, first compound 0.000949 µM): 82.5%
- viability, T/C (second compound 3.16 µM, first compound 0.003 µM): 85.7%
- viability, T/C [43]: 86.6%
- viability, T/C [44]: 76.1%
- viability, T/C [45]: 78.6%
- viability, T/C [46]: 103%
- viability, T/C (second compound 10 µM, first compound 0.000949 µM): 87%
- viability, T/C (second compound 10 µM, first compound 0.003 µM): 86.8%
- viability, T/C [47]: 99%
- viability, T/C [48]: 77.4%
- viability, T/C [49]: 85%
- viability, T/C [50]: 96.9%
